Assay results as given in US20150315241A1, “Antibiotic Peptides” (priority 2007, published 2015).
Converted amounts (≈) assume the structure as drawn. Where two headings read alike, the source gives them in different places. Where a SMILES comes first, the peptide text is derived from it. Where no end group is shown, it is not given here. [ ]: non-standard residue; d: D form. The star is where a group is joined. Guan = guanidino group added at N-terminus (guanidation), N=C(N)*; NMeL = CN[C@@H](CC(C)C)C(=O)O; Agp = N=C(N)NC[C@H](N)C(=O)O; Orn = NCCC[C@H](N)C(=O)O; OPr = CCCO*

Key:
M. luteus ATCC 10240 = format: cell-based, Micrococcus luteus
Protocol: (§1) The minimal inhibition concentrations (MIC) of the apidaecin-derived peptides and peptide-derivatives were determined by a growth inhibition assay using a serial peptide dilution in sterilized round-bottom 96-well plates (polystyrene, U-bottom, Greiner Bio-One GmbH) with a final volume of 100 μL per well. The bacteria, e.g., E. coli BL21 A1, were grown in nutrient broth (NB, Carl Roth GmbH+Co. KG, Karlsruhe, Germany) at 37° C. over night. To each well of the 96-well plate, 50 μL of the overnight culture adjusted to 5×10^6 CFU/mL in 1% TSB were added. Lyophilized peptides and peptidomimetics were dissolved in 1% TSB (tryptic soy broth) or water to give a final concentration of 250 μg/mL. Fifty μL of the peptide or peptidomimetics solution were added to the first well of a row on the plate and mixed. Fifty μL of the first well containing the peptide solution were transferred to the second well, mixed and again 50 μL transferred to the next well and so on. Thereby, a two-fold dilution series was obtained starting at 250 μg/mL in the first well down to 120 ng/mL in the 12th well of a row giving a final peptide or peptidomimetics concentration from 125 μg/mL (well 1) to 60 ng/mL (well 12). Plates were incubated at 37° C. for 20 hrs. The absorbance was measured at 595 nm using a TECAN micro plate spectrophotometer (Tecan, Germany). All peptides and peptidomimetics were measured in triplicates. Sterilized water was used as a negative control.
(§2) The bacteria strains were tested: • Eschericha coli 1103, 10233, BL 21 AI, DC 2, • Klebsiella pneumoniae 681, • Micrococcus luteus ATCC 10240, • Mycobacterium vaccae • Bactillus subtillis 347.

E. coli BL 21 AI = experiment: Growth inhibition assay (MIC); format: cell-based, Escherichia coli; settings: 1% TSB, 37° C., 20 hrs
Protocol: as §1, §2

B. subtilis 347 = format: cell-based, Bactillus subtillis; settings: 1% TSB, 37° C., 20 hrs
Protocol: as §1, §2

K. pneumonia 681 = format: cell-based, Klebsiella pneumoniae; settings: 1% TSB, 37° C., 20 hrs
Protocol: as §1, §2

E. coli 1103 = format: cell-based, Escherichia coli; settings: 1% TSB, 37° C., 20 hrs
Protocol: as §1, §2

[1] = system: S. enterica subsp. Enterica serovar. typhi G10215 ATCC 700408; format: cell-based, Salmonella enterica
Protocol: as §1
(§3) The following multidrug resistant bacteria strains were tested: • Eschericha coli 45849 and D31, • Klebsiella pneumoniae 123132 and K6, • Salmonella typhi S5 and Salmonella enterica subsp. enterica serovar Typhimurium (ATCC 700408), • Rhizobium radiobacter (ATCC 15955 deposited as Agrobacterium tumefaciens).

E. coli 45849 = experiment: Growth inhibition assay (MIC); format: cell-based, Escherichia coli; settings: multidrug resistant strain; 1% TSB, 37° C., 20 hrs
Protocol: as §1, §3

K. Pneumonia 123132 = experiment: Growth inhibition assay (MIC); format: cell-based, Klebsiella pneumoniae; settings: multidrug resistant strain; 1% TSB, 37° C., 20 hrs
Protocol: as §1, §3

[2] = system: K. Pneumonia K6, ATCC 700603; experiment: Growth inhibition assay (MIC); format: cell-based, Klebsiella pneumoniae; settings: multidrug resistant strain; 1% TSB, 37° C., 20 hrs
Protocol: as §1, §3

E. coli D31 = format: cell-based, Escherichia coli
Protocol: as §1, §3

S. typhi S5 = format: cell-based, Salmonella typhi
Protocol: as §1, §3

[3] = system: R. radiobatter ATCC 15955; experiment: Growth inhibition assay (MIC); format: cell-based, Rhizobium radiobacter; settings: multidrug resistant strain; 1% TSB, 37° C., 20 hrs
Protocol: as §1, §3

[4] = multidrug resistant strain, 1% TSB, 37° C., 20 hrs

With “86 ([Orn]NNRPVYIPRPRPPHPRPIRV-NH2) [compound 86]” the “MIC M. luteus ATCC 10240” value (M. luteus ATCC 10240; 1% TSB, 37° C., 20 hrs) was 0.98 µg/mL, the “MIC E. coli BL 21 AI” value (E. coli BL 21 AI) was 3.91 µg/mL and the “MIC B. subtilis 347” value (B. subtilis 347) was 62.5 µg/mL.

In the case of “146 (Guan-[Orn]NNRPVYIPRPRPPHP[Agp]L-NH2) [compound 146]”, the “MIC M. luteus ATCC 10240” value (M. luteus ATCC 10240; 1% TSB, 37° C., 20 hrs) is reported as 4 µg/mL, the “MIC K. pneumonia 681” value (K. pneumonia 681) is reported as 32 µg/mL and the “MIC E. coli 1103” value (E. coli 1103) is reported as 64 µg/mL. For the same molecule, the “MIC E. coli BL 21 AI” value (E. coli BL 21 AI) was 32 µg/mL and the “MIC B. subtilis 347” value (B. subtilis 347) was 125 µg/mL.

“147 (Guan-[Orn]NNRPVYIPRPRPPHPRL-OPr) [compound 147]” was tested, and the “MIC M. luteus ATCC 10240” value (M. luteus ATCC 10240; 1% TSB, 37° C., 20 hrs) was 16 µg/mL, the “MIC K. pneumonia 681” value (K. pneumonia 681) was 8 µg/mL and the “MIC E. coli 1103” value (E. coli 1103) was 16 µg/mL. For the same molecule, the “MIC E. coli BL 21 AI” value (E. coli BL 21 AI) was 4 µg/mL and the “MIC B. subtilis 347” value (B. subtilis 347) was 64 µg/mL.

For 159 (GNNRPVYIPRPRPPHPRL) [compound 159], the “MIC S. enterica subsp. Enterica serovar. typhi G10215 ATCC 700408” value [1, 4] was 0.25 µg/mL, the “MIC E. coli 45849” value (E. coli 45849) was 1 µg/mL and the “MIC K. Pneumonia 123132” value (K. Pneumonia 123132) was 4 µg/mL. The “MIC K. Pneumonia K6, ATCC 700603” value [2] was 4 µg/mL, the “MIC E. coli D31” value (E. coli D31; [4]) was 1 µg/mL and the “MIC S. typhi S5” value (S. typhi S5; [4]) was 0.25 µg/mL.

For `CC[C@H](C)[C@H](NC(=O)[C@H](CCCNC(=N)N)NC(=O)[C@@H]1CCCN1C(=O)[C@H](Cc1c[nH]cn1)NC(=O)[C@@H]1CCCN1C(=O)[C@@H]1CCCN1C(=O)[C@H](CCCNC(=N)N)NC(=O)[C@@H]1CCCN1C(=O)[C@H](CCCNC(=N)N)NC(=O)[C@@H]1CCCN1C(=O)[C@@H](NC(=O)[C@H](Cc1ccc(O)cc1)NC(=O)[C@@H](NC(=O)[C@@H]1CCCN1C(=O)[C@H](CCCNC(=N)N)NC(=O)[C@H](CC(N)=O)NC(=O)[C@H](CC(N)=O)NC(=O)[C@@H](N)CCCN)C(C)C)[C@@H](C)CC)C(N)=O` [compound 16] (H-[Orn]NNRPVYIPRPRPPHPRI-NH2), the “MIC S. enterica subsp. Enterica serovar. typhi G10215 ATCC 700408” value ([1]; ATCC 700408, 20 h) was 2 µg/mL (≈ 0.912 µM), the “MIC M. luteus ATCC 10240” value (M. luteus ATCC 10240; ATCC 10240, 20 h) was 3.91 µg/mL (≈ 1.78 µM) and the “MIC K. Pneumonia K6, ATCC 700603” value [2] was 32 µg/mL (≈ 14.6 µM). For the same molecule, the “MIC E. coli BL 21 AI” value (E. coli BL 21 AI) was 0.98 µg/mL (≈ 0.447 µM) and the “MIC E. coli D31” value (E. coli D31; D31, 20 h) was 128 µg/mL (≈ 58.4 µM).

`CC[C@H](C)[C@H](NC(=O)[C@H](Cc1ccc(O)cc1)NC(=O)[C@@H](NC(=O)[C@@H]1CCCN1C(=O)[C@H](CCCNC(=N)N)NC(=O)[C@H](CC(N)=O)NC(=O)[C@H](CC(N)=O)NC(=O)CN)C(C)C)C(=O)N1CCC[C@H]1C(=O)N[C@@H](CCCNC(=N)N)C(=O)N1CCC[C@H]1C(=O)N[C@@H](CCCNC(=N)N)C(=O)N1CCC[C@H]1C(=O)N1CCC[C@H]1C(=O)N[C@@H](Cc1c[nH]cn1)C(=O)N1CCC[C@H]1C(=O)N[C@@H](CCCNC(=N)N)C(=O)N(C)[C@@H](CC(C)C)C(N)=O` [compound 34] (H-GNNRPVYIPRPRPPHPR[NMeL]-NH2) was tested, and the “MIC S. enterica subsp. Enterica serovar. typhi G10215 ATCC 700408” value ([1]; ATCC 700408, 20 h) was 4 to 8 µg/mL, the “MIC R. radiobatter ATCC 15955” value [3] was 1.3 µg/mL (≈ 0.605 µM) and the “MIC E. coli 45849” value (E. coli 45849) was 4 µg/mL (≈ 1.86 µM). The “MIC K. Pneumonia 123132” value (K. Pneumonia 123132) was 32 µg/mL (≈ 14.9 µM), the “MIC K. Pneumonia K6, ATCC 700603” value [2] was 32 µg/mL (≈ 14.9 µM) and the “MIC E. coli D31” value (E. coli D31; D31, 20 h) was 8 µg/mL (≈ 3.72 µM). For the same molecule, the “MIC S. typhi S5” value (S. typhi S5; S5, 20 h) was 8 µg/mL (≈ 3.72 µM).
